# Reference: patent US10517919B2, “Selective Nox-1 inhibitor peptides and uses thereof” (UNIVERSITE DE BORDEAUX, priority 2013, dated 2019)
# What was measured:
# [1] = system: NADPH oxidase; experiment: NADPH oxidase activity in keratinocytes treated with peptide A variants; assay type: cell-based; conditions: 10 μM, 24 h post-treatment, normalized to scramble treated cells
# Procedure: Keratinocytes were treated with 10 μM of the indicated peptides: scramble control peptide P1 (SEQ ID NO: 57), peptide A with tat sequence (SEQ ID NO: 41) or without the tat sequence (SEQ ID NO:20); shorter peptides P7 (SEQ ID NO: 2) and P8 (SEQ ID NO: 56) (FIG. 8A). The NADPH oxidase activity was measured 24 h post-treatment (RLU/μg of proteins) and was normalized to the scramble treated cells (FIG. 8B).
# [2] = system: XPC deficient mice; experiment: Premature skin aging in XPC deficient mice (progerin, OXPHOS, proteomics); assay type: in vivo
# Procedure: FIGS. 11A and 11B: show the effect of NOX1 inhibitor peptide A (InhNOX) on progerin expression in skin biopsies of young XPC^+/+ and XPC^−/− mice. One month old mice were treated topically with 3 mg/kg (6 mice per group) Nox1 inhibitor peptide A (InhNOX) or control peptide (vehicle) three times per week for three months. (A) Total protein extracts of skin biopsies were assessed for progerin by Western blot analysis. β-actin was used as a loading control. (B) The protein bands corresponding to progerin was quantified and normalized with β-actin. The average density±SD from six mice in each group is presented as the relative value to the density in young wild type mice.
# FIGS. 12A and 12B: show the effects of Nox1 inhibitor peptide A (InhNOX) on protein expression of OXPHOS complexes in skin biopsies of young XPC^+/+ and XPC^−/− mice. One month old mice were treated topically with 3 mg/kg (6 mice per group) Nox1 inhibitor peptide A (InhNOX) or control peptide (vehicle) three times per week for three months. (A) Expression of OXPHOS complexes were assessed by western blot analysis. β-actin was used as a loading control. (B) The bands corresponding to different OXPHOS complexes were quantified and normalized with β-actin. The average density±SD from six mice in each group is presented as the relative value to the density in young wild type mice.
# To assess the anti-aging effects of Nox1 inhibitor peptide A (SEQ ID NO: 41) the accelerated aging in XPC deficient mice was first evaluated. To this end, the expression of progerin, a truncated version of lamin A protein involved in progeria syndrome, has been evaluated in 4 months old (young) and 1.5 year old (old) proficient and deficient XPC mice (XPC^+/+ and XPC^−/−, respectively) (FIGS. 9A and 9B).
# To investigate the role of NADPH oxidase activity on premature aging in XPC deficient mice, one month old XPC^+/+ and XPC^−/− mice have been treated with NOX1 inhibitor peptide or vehicle three times per week for three months. The progerin expression (FIG. 11), OXPHOS protein expression (FIG. 12) and metabolism profile in murine epidermal cells have been then evaluated. […] To have a general idea on the effects of NOX1 peptide inhibitor on the XPC knockdown-induced metabolism alteration, proteomic approach has been used.
# [3] = system: UVB-induced squamous cell carcinomas (SCC); experiment: UVB-induced squamous cell carcinoma induction (photocarcinogenesis); assay type: in vivo, SKH-1 hairless mice; conditions: for tumors with a volume less than 5 mm^3: 3 mg/kg topical, week 29
# Procedure: FIGS. 6A, 6B and 6C: show the photoprotective effects of peptide A on UVB-induced squamous cell carcinomas (SCC) induction using SKH-1 hairless mice. Mice were treated topically with 3 mg/kg of peptide A or control peptide, and irradiated with UVB 10 min later three times per week. The number (6A) and the size (6B) of tumors were assessed once a week during 29 weeks (6C). The tumor volume distribution was evaluated at week 29. Clearly there is a considerable reduction in numbers and size of UVB-induced tumors in SKH-1 mice administrated topically with peptide A.
# To examine the photoprotective effects of peptide A, the effect of peptide A administration on UVB-induced squamous cell carcinomas (SCC) induction using SKH-1 hairless mice, a well-defined murine model for the study of photocarcinogenesis that develops skin tumors including benign papilloma and malignant SCC. The validity of this model is exemplified by the remarkable similarity between UVB-induced carcinogenesis in these mice and the UV carcinogenesis pathway in human skin. SKH-1 hairless mice have yield extremely valuable data on the dose, time-course and the action spectrum for skin tumorigenesis following chronic UV B irradiation. In this study, peptide A (3 mg/kg) was administrated three times per week and 10 minutes prior to each UV B exposure.
# [4] = system: primary human keratinocytes; experiment: ROS level with CM-H2DCF-DA probes in keratinocytes; assay type: cell-based; conditions: 10 or 50 μM, 24 h
# Procedure: (§1) FIGS. 2A and 2B: show the relative ROS level as measured in primary human keratinocytes and HT29 (human colon adenocarcinoma cell line) treated with 10 or 50 μM of peptide inhibitor for 24 h using the CM-H2DCF-DA probes. Cells were treated with 10 μM of the peptides A (SEQ ID NO: 41), B (SEQ ID NO: 42), and C (SEQ ID NO: 43), and the ROS level was measured 24 h post-treatment. ROS level was normalized to non-treated cells (NTC) (*P<0.05).
# (§2) ROS level in primary human keratinocytes treated with 10 or 50 μM of peptides A, B, and C for 24 h were assayed using the CM-H2DCF-DA probes (FIG. 2A).
# [5] = system: human colon adenocarcinoma HT29 cell line; experiment: ROS level in HT29 cells, in which Nox1 is the only active Nox; assay type: cell-based; conditions: 24 h post-treatment
# Procedure: as §1, §2
# [6] = system: UVB-induced Nox activation; experiment: UVB-induced Nox activation in skin of irradiated mice; assay type: in vivo, SKH-1 mice; conditions: topical 3 and 12 mg/kg, 10 min prior to irradiation (UVB 150 mJ/cm^2)
# Procedure: (§3) FIGS. 5A and 5B: show effect of peptide A on Nox1 activity in mouse skin. SKH-1 mice were treated topically with different doses: 0.4, 3 and 12 mg/kg (3 mice per dose) of Nox1 inhibitor peptide A. Skin biopsies were harvested 2 h, 24 h, 48 h and 72 h post-treatment and the NADPH oxidase activity was measured (RLU/μg of proteins). Results was normalized to the non-treated (NT) mice and expressed as % of inhibition of Nox activity. (B) Mice were treated topically with 3 and 12 mg/kg of peptide A (2 mice per dose). 10 min after treatment, mice were exposed to UVB (150 mJ/cm^2). Skin biopsies were harvested 2 h, 24 h. At 46 h after first treatment, mice were treated again with the same concentration of peptide A and exposed to UVB 10 min later. Skin biopsies were then harvested at 2 h, 24 h (i.e. 48 and 72 h after first treatment, respectively). The NADPH oxidase activity was measured (RLU/μg of proteins) and was normalized to the non-treated (NT) and non-irradiated mice.
# (§4) To examine the effect of peptide A on Nox1 activity in mouse skin, SKH-1 mice were treated topically with different doses of peptide A (FIG. 5A). […] The effect of peptide A on UVB irradiated mice was then tested (FIG. 5B).
# [7] = system: NADPH oxidase; experiment: NADPH oxidase activity in shCtrl and shNox1-transduced keratinocytes; assay type: cell-based, human; conditions: peptide A-treated cells versus shNox1-transduced cells and shNox1-transduced cells treated with peptide A
# Procedure: (§5) FIGS. 3A, 3B and 3C: show inhibition of endogenous Nox1 and Nox2 protein expression using lentivirus-mediated expression of shRNA against Nox1 and Nox2. Keratinocytes were transduced with different shRNA (shNox1, shNox2 and the control shCtrl). Transduction efficacy was checked by western blotting analysis. […] Transduction efficacy was checked by western blotting analysis. Relative ROS level (3B) and Nox activity (3C) were measured 24 h post-treatment with Nox1 inhibitor peptide A compared to control peptide C. ROS level was normalized to counterpart peptide C-treated cells. NADPH oxidase activity was measured by relative luminescence unit (RLU) per μg of proteins. *P<0.05. […] In FIG. 3C NADPH oxidase activity was measured in shCtrl and shNox1-transduced cells treated with or without Nox1 inhibitor peptide A.
# (§6) To examine the specificity of these peptides, the expression of endogenous Nox1 and Nox2 protein was inhibited using lentivirus-mediated expression of shRNA against Nox1 and Nox2. […] Further, NADPH oxidase activity was measured in shCtrl and shNox1-transduced cells treated with or without peptide A (FIG. 3C).
# [8] = biological target: T1, Nox1 (Homo sapiens, UniProt Q86UR1); experiment: ROS level in shCtrl, shNox1 or shNox2-transduced keratinocytes; assay type: cell-based; conditions: shNox1-transduced keratinocytes, 24 h post-treatment, compared to control peptide C
# T1 construct: endogenous in cells; host or cells: keratinocytes transduced with lentiviral shCtrl, shNox1 or shNox2
# T1 sequence (Q86UR1 1-476): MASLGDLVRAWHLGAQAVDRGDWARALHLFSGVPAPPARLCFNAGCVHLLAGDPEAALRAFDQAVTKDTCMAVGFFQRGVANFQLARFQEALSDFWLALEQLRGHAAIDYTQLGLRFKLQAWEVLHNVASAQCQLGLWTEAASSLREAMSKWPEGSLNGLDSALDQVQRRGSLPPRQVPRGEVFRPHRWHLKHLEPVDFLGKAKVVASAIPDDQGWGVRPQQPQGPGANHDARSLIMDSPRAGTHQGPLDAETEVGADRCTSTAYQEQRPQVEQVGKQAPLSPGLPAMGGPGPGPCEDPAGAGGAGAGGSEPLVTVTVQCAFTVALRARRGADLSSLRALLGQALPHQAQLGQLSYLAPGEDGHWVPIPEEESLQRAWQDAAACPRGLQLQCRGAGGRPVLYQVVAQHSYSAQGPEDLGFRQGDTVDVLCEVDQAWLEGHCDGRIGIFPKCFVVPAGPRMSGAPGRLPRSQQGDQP
# Procedure: as §5, §6
# [9] = system: NADPH oxidase; experiment: NADPH oxidase activity in non-tumor bearing skin and UVB-induced tumors after 29 weeks; assay type: in vivo, SKH-1 mice; conditions: compared with vehicle treated mice, after 29 weeks of treatment
# Procedure: Mice were sacrificed after 29 weeks of treatment. Non-tumor bearing skin and tumors were harvested from irradiated mice treated with peptide A or the vehicle. NADPH oxidase activity was measured as RLU/μg of proteins in non-tumor bearing skin and UVB-induced tumors. Relative inhibition of Nox activity in non-tumor bearing skin and tumors was evaluated following arbitrary setting the Nox activity in non-tumor bearing skin and tumors taken from vehicle treated-mice to 100%. Results were then expressed as the average percentage of vehicle-treated mice.
# The activity of NADPH oxidase was reduced 70% in non-tumor bearing skin and 54% in tumors isolated from mice treated with peptide A compared with vehicle treated mice (FIG. 7).
# [10] = biological target: T2, Nox1 activity in mouse skin (Mus musculus, UniProt Q8CJ00); experiment: NADPH oxidase activity in mouse skin after topical treatment; assay type: in vivo, SKH-1 mice; conditions: 3 and 12 mg/kg
# T2 construct: from tissue; host or cells: skin biopsies of SKH-1 mice
# T2 sequence (Q8CJ00 1-444): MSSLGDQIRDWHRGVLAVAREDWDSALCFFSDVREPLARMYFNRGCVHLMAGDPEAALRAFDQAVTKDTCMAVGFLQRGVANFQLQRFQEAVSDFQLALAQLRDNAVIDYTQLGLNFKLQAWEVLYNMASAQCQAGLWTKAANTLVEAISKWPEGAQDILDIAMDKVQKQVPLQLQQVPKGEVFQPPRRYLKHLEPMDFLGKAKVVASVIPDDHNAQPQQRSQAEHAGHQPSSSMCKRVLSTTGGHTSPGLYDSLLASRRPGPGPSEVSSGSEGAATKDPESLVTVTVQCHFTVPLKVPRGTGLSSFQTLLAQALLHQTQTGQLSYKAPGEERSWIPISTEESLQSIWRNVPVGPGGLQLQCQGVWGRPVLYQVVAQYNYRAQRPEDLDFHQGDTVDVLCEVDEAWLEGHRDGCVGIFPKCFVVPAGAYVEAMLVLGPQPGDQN
# Procedure: as §3, §4
# [11] = 3 mg/kg topical three times per week, 10 minutes prior to each UVB exposure, 29 weeks
# [12] = XPC^−/− mice, 3 mg/kg topical three times per week for three months
substance,measurement,setting,value
"P8: shorter peptide derived from peptide A, sequence not printed (PPTVPTRP; … PEPTIDIC FRAGMENT)",inhibition of NADPH oxidase activity,[1],efficiently inhibit
"PPTVPTR (HOMO SAPIENS) [P7, shorter peptide derived from peptide A]",inhibition of NADPH oxidase activity,[1],efficiently inhibit
same,XPC deficiency-induced premature aging,[2]; XPC deficient mice,blocked
same,"all experiments of Example 8 repeated, compared with peptide A",[2]; XPC deficient mice,the same results have been obtained
PPTVPTRPS (HOMO SAPIENS) [peptide A without tat],inhibition of NADPH oxidase activity,[1],as efficiently as peptide A
"tat-C-L-R-I-T-R-Q-S-R [peptide C, reference compound]",tumors with a volume less than 5 mm^3,[3],8%
"tat-I-Q-S-R-C-C-T-V-T (RKKRRQRRRIQSRCCTVT; FUSION PEPTIDE) [peptide B, target SH3-NoxA1]",ROS level,[4],significant decrease
same,ROS level,[5],significant reduction
"tat-P-P-T-V-P-T-R-P-S (RKKRRQRRRPPTVPTRPS; FUSION PEPTIDE) [peptide A, target SH3-NoxA1]",UVB-induced Nox activation,[6],efficiently blocked
same,NADPH oxidase activity,[7],Equally decreased
same,steady-state levels of ROS in shNox1-transduced cells,[8],no effect
same,ROS level,[4],significant decrease
same,reduction of NADPH oxidase activity in non-tumor bearing skin,[9],70%
same,reduction of NADPH oxidase activity in tumors,[9],54%
same,duration of efficient inhibition of Nox activity in skin,[10],up to 3 days
same,decrease in tumor number,[3]; [11],2.3 times
same,decrease in tumor size,[3]; [11],2.9 times
same,tumors with a volume less than 5 mm^3,[3],57%
same,XPC deficiency-induced premature aging,[2]; XPC deficient mice,blocked
same,XPC deficiency-induced metabolic alteration (proteomic approach),"[2]; XPC deficient mice, three times per week for three months",eliminated the effects
same,"expression of OXPHOS complexes I, II and III",[2]; [12],abrogated the decrease
same,protein expression of progerin in skin,[2]; [12],blocked the increase
same,ROS level,[5],significant reduction
